Data: patent publication US9765063B2, “Amido compounds as RORγt modulators and uses thereof” (New York University, priority 2011, dated 2017)
Read-outs that look alike come from different tables or passages of the source.

Tests used:
[1] = target: T1, RORγt (Mus musculus, UniProt P51450); assay: RORγt S2 cell reporter assay (Gal4-RORγt fusion, UAS-luciferase); format: cell-based
T1 construct: expressed in transfected cells; the other entry of the earlier key: GAL4 (P04386, Regulatory protein GAL4)
Procedure, shortened: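 Drosophila S2 cells stably carrying Gal4DBD-RORγt under a copper-inducible metallothionein promoter plus a UAS-firefly luciferase reporter were preincubated 1 h with compound, then induced with 0.7 mM copper sulfate for 20 h at ambient temperature. Luminescence read after 10 min; efficacy given as % of maximal response of control inhibitor Digoxin (100%).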

[2] = test system: human Th1 cell differentiation; assay: Human Th1 cell differentiation, IFNγ production (counter-screen, FIG. 2); format: cell-based; conditions: FIG. 2, FACS, 0.5 μM, naive CD4 T cells, IL12 and IL2; listed as NCGC00242624
Experimental: For Th1 differentiation, IL12 (10 ng/ml) and IL2 (100 U/ml) were added to naive CD4 T cell cultures instead of TGFβ and IL6.

T1 sequence (P51450 with tags, fused parts or gaps): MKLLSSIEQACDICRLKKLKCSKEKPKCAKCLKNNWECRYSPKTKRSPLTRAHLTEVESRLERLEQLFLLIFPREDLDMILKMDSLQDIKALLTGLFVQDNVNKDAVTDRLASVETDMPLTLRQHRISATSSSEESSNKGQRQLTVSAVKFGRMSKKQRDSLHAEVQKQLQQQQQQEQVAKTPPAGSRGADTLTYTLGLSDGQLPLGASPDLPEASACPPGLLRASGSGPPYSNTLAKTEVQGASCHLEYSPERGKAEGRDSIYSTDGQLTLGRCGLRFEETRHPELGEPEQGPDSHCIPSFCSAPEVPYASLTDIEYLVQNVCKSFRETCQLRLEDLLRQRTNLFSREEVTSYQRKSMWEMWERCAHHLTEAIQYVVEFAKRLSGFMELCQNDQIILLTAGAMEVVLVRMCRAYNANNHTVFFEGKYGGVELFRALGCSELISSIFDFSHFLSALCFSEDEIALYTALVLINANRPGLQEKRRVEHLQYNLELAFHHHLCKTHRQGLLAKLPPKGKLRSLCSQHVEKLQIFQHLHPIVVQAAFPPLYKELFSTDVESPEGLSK

In the case of `COc1cc(O)c(C(CC(=O)N2CC(C)CC(C)C2)c2ccc(C(=O)O)cc2)c(OC)c1` (stereo not drawn) [Compound 99, 4-(3-(3,5-Dimethylpiperidin-1-yl)-1-(2-hydroxy-4,6-dimethoxyphenyl)-3-oxopropyl)benzoic acid], the IC50 ([1]; Table 1, Drosophila S2 cells, luciferase reporter, read-out: IC50) is reported as 1 to 10 µM, the IC50 ([1]; Table 2, from the S2 cell reporter assay, listed for comparison, read-out: S2 cell RORg IC50) is reported as less than 1 µM and the “Th1 cell differentiation, as measured by IFNγ production” value [2] is reported as “does not inhibit Th1 cell differentiation”.
